Assay results reported in PubChem BioAssay (NCI).
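Where inhibition never reached the appropriate level, the endpoint shown equals the highest concentration tested. Otherwise, values were interpolated linearly from a five-concentration, 48-hour dose response in 96-well plates. At the TGI there is no net growth.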

Assays:
Experiment in all cases: DTP human tumour cell line panel, 48 h
NCI-H460 lung = system: NCI-H460 lung
T-47D breast = system: T-47D breast
M14 melanoma = system: M14 melanoma
IGROV1 ovarian = system: IGROV1 ovarian
MOLT-4 leukemia = system: MOLT-4 leukemia
RXF 393 renal = system: RXF 393 renal
OVCAR-5 ovarian = system: OVCAR-5 ovarian
HCT-116 colon = system: HCT-116 colon
SN12C renal = system: SN12C renal
HOP-62 NSCLC = system: HOP-62 NSCLC
NCI-H23 lung = system: NCI-H23 lung
NCI-H226 lung = system: NCI-H226 lung
UACC-62 melanoma = system: UACC-62 melanoma
TK-10 renal = system: TK-10 renal
MDA-N = system: MDA-N
MALME-3M melanoma = system: MALME-3M melanoma
OVCAR-8 ovarian = system: OVCAR-8 ovarian
SF-268 CNS = system: SF-268 CNS
KM12 colon = system: KM12 colon
786-0 renal = system: 786-0 renal
MCF7 breast = system: MCF7 breast
HCT-15 colon = system: HCT-15 colon
HS 578T breast = system: HS 578T breast
SNB-75 CNS = system: SNB-75 CNS
HOP-92 NSCLC = system: HOP-92 NSCLC
PC-3 prostate = system: PC-3 prostate
SNB-19 CNS = system: SNB-19 CNS
U251 CNS = system: U251 CNS
UO-31 renal = system: UO-31 renal
HL-60(TB) leukemia = system: HL-60(TB) leukemia
MDA-MB-435 = system: MDA-MB-435
SK-MEL-28 melanoma = system: SK-MEL-28 melanoma
NCI-H522 lung = system: NCI-H522 lung
K-562 leukemia = system: K-562 leukemia
A549 NSCLC = system: A549 NSCLC
SW-620 colon = system: SW-620 colon
HCC-2998 colon = system: HCC-2998 colon
CCRF-CEM leukemia = system: CCRF-CEM leukemia
EKVX NSCLC = system: EKVX NSCLC
SK-OV-3 ovarian = system: SK-OV-3 ovarian
SF-295 CNS = system: SF-295 CNS
SR leukemia = system: SR leukemia
CAKI-1 renal = system: CAKI-1 renal
HT29 colon = system: HT29 colon
OVCAR-4 ovarian = system: OVCAR-4 ovarian
ACHN renal = system: ACHN renal
A498 renal = system: A498 renal
RPMI-8226 leukemia = system: RPMI-8226 leukemia
MDA-MB-231 breast = system: MDA-MB-231 breast
SK-MEL-2 melanoma = system: SK-MEL-2 melanoma
SK-MEL-5 melanoma = system: SK-MEL-5 melanoma
NCI/ADR-RES ovarian = system: NCI/ADR-RES ovarian
UACC-257 melanoma = system: UACC-257 melanoma
SF-539 CNS = system: SF-539 CNS
COLO 205 colon = system: COLO 205 colon
DU-145 prostate = system: DU-145 prostate
LOX IMVI melanoma = system: LOX IMVI melanoma
OVCAR-3 ovarian = system: OVCAR-3 ovarian

With `Cc1ccc(S(=O)(=O)NNC(=O)Nc2ccc(Cl)cc2)cc1` the TGI (NCI-H460 lung) was greater than 100 µM, the TGI (T-47D breast) was greater than 100 µM and the TGI (M14 melanoma) was greater than 100 µM. The TGI (IGROV1 ovarian) was greater than 100 µM, the TGI (MOLT-4 leukemia) was greater than 100 µM and the TGI (RXF 393 renal) was greater than 100 µM. It also gave a TGI (OVCAR-5 ovarian) greater than 100 µM, a TGI (HCT-116 colon) greater than 100 µM and a TGI (SN12C renal) greater than 100 µM. It also gave a TGI (HOP-62 NSCLC) greater than 100 µM, a TGI (NCI-H23 lung) greater than 100 µM and a TGI (NCI-H226 lung) greater than 100 µM. The TGI (UACC-62 melanoma) was greater than 100 µM, the TGI (TK-10 renal) was greater than 100 µM and the TGI (MDA-N) was greater than 100 µM. For the same compound, the TGI (MALME-3M melanoma) was greater than 100 µM, the TGI (OVCAR-8 ovarian) was greater than 100 µM and the TGI (SF-268 CNS) was greater than 100 µM. The TGI (KM12 colon) was greater than 100 µM, the TGI (786-0 renal) was greater than 100 µM and the TGI (MCF7 breast) was greater than 100 µM. The TGI (HCT-15 colon) was greater than 100 µM, the TGI (HS 578T breast) was greater than 100 µM and the TGI (SNB-75 CNS) was 99.7 µM. For the same compound, the TGI (HOP-92 NSCLC) was greater than 100 µM, the TGI (PC-3 prostate) was greater than 100 µM and the TGI (SNB-19 CNS) was greater than 100 µM. The TGI (U251 CNS) was greater than 100 µM, the TGI (UO-31 renal) was greater than 100 µM and the TGI (HL-60(TB) leukemia) was greater than 100 µM. For the same compound, the TGI (MDA-MB-435) was greater than 100 µM, the TGI (SK-MEL-28 melanoma) was greater than 100 µM and the TGI (NCI-H522 lung) was greater than 100 µM. The TGI (K-562 leukemia) was greater than 100 µM, the TGI (A549 NSCLC) was greater than 100 µM and the TGI (SW-620 colon) was greater than 100 µM. It also gave a TGI (HCC-2998 colon) greater than 100 µM, a TGI (CCRF-CEM leukemia) greater than 100 µM and a TGI (EKVX NSCLC) greater than 100 µM. The TGI (SK-OV-3 ovarian) was greater than 100 µM, the TGI (SF-295 CNS) was greater than 100 µM and the TGI (SR leukemia) was greater than 100 µM. The TGI (CAKI-1 renal) was greater than 100 µM, the TGI (HT29 colon) was greater than 100 µM and the TGI (OVCAR-4 ovarian) was greater than 100 µM. For the same compound, the TGI (ACHN renal) was greater than 100 µM, the TGI (A498 renal) was greater than 100 µM and the TGI (RPMI-8226 leukemia) was greater than 100 µM. It also gave a TGI (MDA-MB-231 breast) greater than 100 µM, a TGI (SK-MEL-2 melanoma) greater than 100 µM and a TGI (SK-MEL-5 melanoma) greater than 100 µM. The TGI (NCI/ADR-RES ovarian) was greater than 100 µM, the TGI (UACC-257 melanoma) was greater than 100 µM and the TGI (SF-539 CNS) was greater than 100 µM. For the same compound, the TGI (COLO 205 colon) was greater than 100 µM and the TGI (DU-145 prostate) was greater than 100 µM.
`O=[N+]([O-])C(=C1NCCN1)C(Cl)=C(Cl)Cl` showed a TGI (NCI-H460 lung) greater than 100 µM, a TGI (T-47D breast) greater than 100 µM and a TGI (M14 melanoma) greater than 100 µM. It also gave a TGI (IGROV1 ovarian) greater than 100 µM, a TGI (MOLT-4 leukemia) greater than 100 µM and a TGI (RXF 393 renal) greater than 100 µM. It also gave a TGI (OVCAR-5 ovarian) greater than 100 µM, a TGI (HCT-116 colon) greater than 100 µM and a TGI (SN12C renal) greater than 100 µM. The TGI (HOP-62 NSCLC) was greater than 100 µM, the TGI (NCI-H23 lung) was greater than 100 µM and the TGI (NCI-H226 lung) was greater than 100 µM. It also gave a TGI (UACC-62 melanoma) greater than 100 µM, a TGI (TK-10 renal) greater than 100 µM and a TGI (MDA-N) greater than 100 µM. The TGI (MALME-3M melanoma) was greater than 100 µM, the TGI (OVCAR-8 ovarian) was greater than 100 µM and the TGI (SF-268 CNS) was greater than 100 µM. It also gave a TGI (KM12 colon) greater than 100 µM, a TGI (786-0 renal) greater than 100 µM and a TGI (MCF7 breast) greater than 100 µM. The TGI (HCT-15 colon) was greater than 100 µM, the TGI (HS 578T breast) was greater than 100 µM and the TGI (LOX IMVI melanoma) was greater than 100 µM. For the same compound, the TGI (PC-3 prostate) was greater than 100 µM, the TGI (SNB-19 CNS) was greater than 100 µM and the TGI (U251 CNS) was greater than 100 µM. The TGI (UO-31 renal) was greater than 100 µM, the TGI (HL-60(TB) leukemia) was greater than 100 µM and the TGI (MDA-MB-435) was greater than 100 µM. It also gave a TGI (SK-MEL-28 melanoma) greater than 100 µM, a TGI (NCI-H522 lung) greater than 100 µM and a TGI (K-562 leukemia) greater than 100 µM. It also gave a TGI (A549 NSCLC) greater than 100 µM, a TGI (HCC-2998 colon) greater than 100 µM and a TGI (CCRF-CEM leukemia) greater than 100 µM. The TGI (EKVX NSCLC) was greater than 100 µM, the TGI (SK-OV-3 ovarian) was greater than 100 µM and the TGI (SF-295 CNS) was greater than 100 µM. The TGI (SR leukemia) was greater than 100 µM, the TGI (CAKI-1 renal) was greater than 100 µM and the TGI (HT29 colon) was greater than 100 µM. The TGI (OVCAR-4 ovarian) was greater than 100 µM, the TGI (ACHN renal) was greater than 100 µM and the TGI (A498 renal) was greater than 100 µM. For the same compound, the TGI (RPMI-8226 leukemia) was greater than 100 µM, the TGI (MDA-MB-231 breast) was greater than 100 µM and the TGI (SK-MEL-2 melanoma) was greater than 100 µM. The TGI (OVCAR-3 ovarian) was greater than 100 µM, the TGI (SK-MEL-5 melanoma) was greater than 100 µM and the TGI (NCI/ADR-RES ovarian) was greater than 100 µM. The TGI (UACC-257 melanoma) was greater than 100 µM, the TGI (SF-539 CNS) was greater than 100 µM and the TGI (COLO 205 colon) was greater than 100 µM. It also gave a TGI (DU-145 prostate) greater than 100 µM.
